Key:
[1] = Selectivity index, ratio IC50 for rat L6 cells to IC50 for multidrug-resistant Plasmodium falciparum K1 infected in human red blood cells; type: functional
[2] = tested on: L6; experiment: Cytotoxicity at rat L6 cells after 72 hrs by microplate alamar blue assay; type: cell-based
[3] = Distribution coefficient, log D of the compound at pH 7.4; type: physicochemical; conditions: octanol/water
[4] = tested on: Plasmodium falciparum; experiment: microbe, parasite or virus in culture; conditions: K1
Description: (§1) Antimalarial activity against multidrug-resistant Plasmodium falciparum K1 infected in human red blood cells assessed as 3H-hypoxanthine incorporation after 48 hrs by liquid scintillation counting

[5] = tested on: Plasmodium falciparum; experiment: microbe, parasite or virus in culture; conditions: NF54
Description: Antimalarial activity against Plasmodium falciparum NF54

[6] = tested on: Plasmodium falciparum; experiment: microbe, parasite or virus in culture; conditions: FC27/Papua New Guinea
Description: Antimalarial activity against Plasmodium falciparum FC27

[7] = tested on: Plasmodium falciparum; experiment: microbe, parasite or virus in culture; conditions: Mad20/Papua New Guinea
Description: Antimalarial activity against Plasmodium falciparum Mad20

[8] = tested on: Plasmodium falciparum; experiment: microbe, parasite or virus in culture; conditions: K1; remark: listed apart in the source
Description: Antimalarial activity against Plasmodium falciparum K1

[9] = tested on: Plasmodium berghei; experiment: Antimalarial activity against GFP-transfected Plasmodium berghei strain ANKA infected in NMRI mouse assessed as reduction in parasitemia at 50 mg/kg/day, ip administered for 4 consecutive days measured 24 hrs after last treatment by FACS analysis relative to control; type: functional; design: scale not given: the % may be the effect or the level left; conditions: route intraperitoneal
[10] = tested on: Plasmodium falciparum
Description: as §1

Row | Compound | Ratio IC50 [1] | IC50 ([2]; Rattus norvegicus, L6, 72 h) [µM] | logD [3] | IC50 [4] [nM] | other results
1 | CN(C)CCCNc1cc(-c2ccc(F)cc2)c(C#N)c2nc3ccccc3n12 | 43 | 11.6 | 1.45 | 270 | –
2 | CN(C)CCCNc1cc(C(F)(F)F)c(C#N)c2nc3ccccc3n12 | 52.5 | 166 | 2.06 | 3160 | –
3 | N#Cc1c(-c2ccc(C(F)(F)F)cc2)cc(NCCN2CCOCC2)n2c1nc1ccccc12 | 68 | 33.3 | 3.72 | 490 | –
4 | OC(c1cc(C(F)(F)F)nc2c(C(F)(F)F)cccc12)C1CCCCN1 (configuration not stated) [MEFLOQUINE] | – | – | – | – | IC50 [5]: 13 nM; IC50 [6]: < 40 nM; IC50 [7]: 13 nM
5 | CN(C)CCCNc1cc(-c2ccc(C(F)(F)F)cc2)c(C#N)c2nc3ccccc3n12 | 455 | > 200 | 2.49 | 440 | –
6 | CN(C)CCNc1cc(C(F)(F)F)c(C#N)c2nc3ccccc3n12 | 13 | 44.7 | 2.01 | 3430 | –
7 | CN(C)CCNc1cc(-c2ccccc2)c(C#N)c2nc3ccccc3n12 | >50 | > 80 | 1.48 | 1490 | –
8 | CCNCCN(CC)c1cc(-c2ccc(C(F)(F)F)cc2)c(C#N)c2nc3ccccc3n12 | 22.9 | 21.5 | 3.52 | 940 | –
9 | CCCc1cc(N2CCN(Cc3ccc(F)cc3)CC2)n2c(nc3ccccc32)c1C#N | – | – | – | – | IC50 [5]: 53 nM; IC50 [8]: 23 nM
10 | CN(C)CCCNc1cc(-c2ccc(Cl)cc2)c(C#N)c2nc3ccccc3n12 | >1000 | > 210 | 2.09 | 210 | –
11 | CN(C)CCNc1cc(-c2cccc(F)c2)c(C#N)c2nc3ccccc3n12 | 7 | 5.88 | 1.5 | 840 | –
12 | CCN(CC)CCCNc1cc(-c2cccc(C(F)(F)F)c2)c(C#N)c2nc3ccccc3n12.Cl.Cl | – | – | – | – | IC50 ([2]; l6): 11.8 µM; Activity [9]: 0%; IC50 [10]: 250 nM
13 | CCN(CC)CCCNc1cc(-c2ccc(Cl)cc2)c(C#N)c2nc3ccccc3n12 | 287 | 48.8 | 2.57 | 170 | –
14 | N#Cc1c(C(F)(F)F)cc(NCCN)n2c1nc1ccccc12 | 13 | 40.1 | 1.37 | 3090 | –
15 | CCN(CC)CCCNc1cc(C(F)(F)F)c(C#N)c2nc3ccccc3n12 | 42.2 | 87.8 | 2.54 | 2080 | –
16 | CN(C)CCNc1cc(-c2cccc(C(F)(F)F)c2)c(C#N)c2nc3ccccc3n12 | 24.6 | 7.14 | 2.45 | 290 | –
17 | COc1cc([C@@H]2c3cc4c(cc3[C@H](O)[C@H]3COC(=O)[C@H]23)OCO4)cc(OC)c1OC [PODOFILOX] | – | 0.009 | – | – | –
18 | CN(C)CCCNc1cc(-c2ccccc2)c(C#N)c2nc3ccccc3n12 | 71 | 108 | 1.52 | 1520 | –
19 | CCN(CC)CCCNc1cc(-c2cccc(F)c2)c(C#N)c2nc3ccccc3n12 | 121 | 55.7 | 2.02 | 460 | –
20 | CCN(CC)CCCNc1cc(-c2ccc(C(F)(F)F)cc2)c(C#N)c2nc3ccccc3n12 | >633 | – | 2.97 | 300 | IC50 ([2]; l6): > 190 µM
21 | N#Cc1c(-c2ccc(C(F)(F)F)cc2)cc(NCCN)n2c1nc1ccccc12 | 3.4 | 5.11 | 1.8 | 1490 | –
22 | CCN(CC)CCCNc1cc(-c2cccc(C(F)(F)F)c2)c(C#N)c2nc3ccccc3n12 | 128 | – | 2.97 | 190 | IC50 ([2]; l6): 24.3 µM
23 | CCN(CC)CCNc1cc(-c2ccc(Cl)cc2)c(C#N)c2nc3ccccc3n12 | 683 | 41 | 2.54 | 60 | –
24 | CN(C)CCCNc1cc(-c2ccc(C(F)(F)F)cc2)c(C#N)c2nc3ccccc3n12.Cl.Cl | – | – | – | – | IC50 ([2]; l6): 21.1 µM; Activity [9]: 30.7%; IC50 [10]: 260 nM
25 | N#Cc1c(-c2ccccc2)cc(NCCCN)n2c1nc1ccccc12 | 5.2 | 11.9 | 0.49 | 2270 | –

— ChEMBL document CHEMBL1799932, “Antimalarial pyrido[1,2-a]benzimidazoles” (J Med Chem, 2011)
